Biological target: hMC2 receptor (Homo sapiens, UniProt Q01718)
Experiment: hMC2 membrane binding assay ([125I]ACTH (1-39) Tyr23, SPA)
Design: scale not given here
Details: crude hMC2R membranes from CRE-bla-CHO-K1 cells expressing hMC2 receptor and hMRAP; [125I]ACTH (1-39) Tyr23 0.2 nM; 1.5 hours at room temperature; read-out: MC2R binding potency
In short: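 Ki comes from non-linear regression of SPA scintillation counts. Displacement of 0.2 nM [125I]ACTH(1-39) Tyr23 by compound dose series (usually 0–10,000 nM final) ran 1.5 h at room temperature. Membranes came from CHO-K1 CRE-bla cells stably expressing hMC2R plus hMRAP, bead-coupled in pH 7.4 buffer with 0.2% BSA.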

hMC2 receptor, sequence (Q01718 whole entry): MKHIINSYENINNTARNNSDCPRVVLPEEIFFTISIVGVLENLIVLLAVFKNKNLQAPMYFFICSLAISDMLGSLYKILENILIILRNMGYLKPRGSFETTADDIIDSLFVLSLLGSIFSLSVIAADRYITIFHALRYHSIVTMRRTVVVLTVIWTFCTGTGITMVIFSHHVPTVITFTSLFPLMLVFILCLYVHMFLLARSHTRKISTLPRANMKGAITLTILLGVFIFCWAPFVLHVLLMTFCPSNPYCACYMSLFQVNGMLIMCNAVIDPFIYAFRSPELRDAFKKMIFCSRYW
hMC2 receptor, sequence (Q8TCY5 whole entry partner): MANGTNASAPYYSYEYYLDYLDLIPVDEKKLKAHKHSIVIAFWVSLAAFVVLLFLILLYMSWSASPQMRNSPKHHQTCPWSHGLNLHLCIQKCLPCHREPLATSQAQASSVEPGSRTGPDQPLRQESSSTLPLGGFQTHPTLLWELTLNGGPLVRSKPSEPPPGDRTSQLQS

Ki [nM] | Structure (SMILES)
< 10 | CCOc1ncccc1-c1ccc(N2CCN(C(=O)c3ccc(Cl)cc3C(F)(F)F)C[C@H]2CC)c(CNC)n1 [Compound 2-16, ({5-[(2R)-4-[4-chloro-2-(trifluoromethyl)benzoyl]-2-ethylpiperazin-1-yl]-2′-ethoxy-[2,3′-bipyridin]-6-yl}methyl)(methyl)amine]
< 10 | CCOc1ncccc1-c1ccc(N2CCN(C(=O)C3(C(F)(F)F)CCCC3)C[C@H]2CC)c(C(=O)NC[C@H]2CCCN2)n1 [Compound 1-324, 2′-ethoxy-5-[(2R)-2-ethyl-4-[1-(trifluoromethyl)cyclopentanecarbonyl]piperazin-1-yl]-N-{[(2R)-pyrrolidin-2-yl]methyl}-[2,3′-bipyridine]-6-carboxamide]
< 10 | CCOc1ncccc1-c1ccc(N2CCN(C(=O)c3ccc(F)cc3C(F)F)C[C@H]2CC)c(C(=O)N[C@@H]2CCN(C)C2)n1 [Compound 1-279, 5-[(2R)-4-[2-(difluoromethyl)-4-fluorobenzoyl]-2-ethylpiperazin-1-yl]-2′-ethoxy-N-[(3R)-1-methylpyrrolidin-3-yl]-[2,3′-bipyridine]-6-carboxamide]
< 10 | CCOc1ncccc1-c1ccc(N2CCN(C(=O)C3(c4ccccc4)CCCC3)C[C@H]2CC)c(C(=O)N[C@@H]2CCNC2)n1 [Compound 1-352, 2′-ethoxy-5-[(2R)-2-ethyl-4-(1-phenylcyclopentanecarbonyl)piperazin-1-yl]-N-[(3R)-pyrrolidin-3-yl]-[2,3′-bipyridine]-6-carboxamide]
< 10 | CCOc1ncccc1-c1ccc(N2CCN(C(=O)N3CCc4cccc(C(F)(F)F)c43)C[C@H]2CC)c(C(=O)N[C@H]2CCN(C)C2)n1 [Compound 1-389, 2′-ethoxy-5-[(2R)-2-ethyl-4-[7-(trifluoromethyl)-2,3-dihydro-1H-indole-1-carbonyl]piperazin-1-yl]-N-[(3S)-1-methylpyrrolidin-3-yl]-[2,3′-bipyridine]-6-carboxamide]
< 10 | CCOc1ccccc1-c1ccc(N2CCN(C(=O)N3CCc4cc(F)cc(C#N)c43)C[C@H]2CC)c(C(=O)NC2CN(C)C2)n1 [Compound 1-424, 3-[(2R)-4-(7-cyano-5-fluoro-2,3-dihydro-1H-indole-1-carbonyl)-2-ethylpiperazin-1-yl]-6-(2-ethoxyphenyl)-N-(1-methylazetidin-3-yl)pyridine-2-carboxamide]
< 10 | CCOc1ccccc1-c1ccc(N2CCN(C(=O)N3CCCC[C@H]3C(F)(F)F)C[C@H]2CC)c(C(=O)N[C@H]2CCN(C)C2)n1 [Compound 1-435, 6-(2-ethoxyphenyl)-3-[(2R)-2-ethyl-4-[(2S)-2-(trifluoromethyl)piperidine-1-carbonyl]piperazin-1-yl]-N-[(3S)-1-methylpyrrolidin-3-yl]pyridine-2-carboxamide]
< 10 | CCOc1ncccc1-c1ccc(N2CCN(C(=O)c3ccc(OC)nc3C(F)(F)F)C[C@H]2CC)c(C(=O)N[C@@H]2CCNC2)c1F [Compound 1-271, 3-(2-ethoxypyridin-3-yl)-6-[(2R)-2-ethyl-4-[6-methoxy-2-(trifluoromethyl)pyridine-3-carbonyl]piperazin-1-yl]-2-fluoro-N-[(3R)-pyrrolidin-3-yl]benzamide]
< 10 | CCOc1ncccc1-c1ccc(N2CCN(C(=O)O[C@@H](C(C)(C)C)C(F)(F)F)C[C@H]2CC)c(C(=O)N[C@@H]2CN3CCC2CC3)n1 [Compound 1-403, (2S)-1,1,1-trifluoro-3,3-dimethylbutan-2-yl (3R)-4-(6-{[(3S)-1-azabicyclo[2.2.2]octan-3-yl]carbamoyl}-2′-ethoxy-[2,3′-bipyridin]-5-yl)-3-ethylpiperazine-1-carboxylate; or (2R)-1,1,1-trifluoro-3,3-dimethylbutan-2-yl (3R)-4-(6-{[(3S)-1-azabicyclo[2.2.2]octan-3-yl]carbamoyl}-2′-ethoxy-[2,3′-bipyridin]-5-yl)-3-ethylpiperazine-1-carboxylate]
< 10 | CCOc1ncccc1-c1ccc(N2CCN(C(=O)c3ccc(OC)nc3C(F)(F)F)C[C@H]2CC)c(C(=O)N[C@@H]2CNC[C@H]2F)n1 [Compound 1-289, 2′-ethoxy-5-[(2R)-2-ethyl-4-[6-methoxy-2-(trifluoromethyl)pyridine-3-carbonyl]piperazin-1-yl]-N-[(3R,4R)-4-fluoropyrrolidin-3-yl]-[2,3′-bipyridine]-6-carboxamide]
< 10 | CCOc1ncccc1-c1ccc(N2CCN(C(=O)N3CCc4cccc(C)c43)C[C@H]2CC)c(C(=O)N[C@@H]2CCNC2)n1 [Compound 1-360, 2′-ethoxy-5-[(2R)-2-ethyl-4-(7-methyl-2,3-dihydro-1H-indole-1-carbonyl)piperazin-1-yl]-N-[(3R)-pyrrolidin-3-yl]-[2,3′-bipyridine]-6-carboxamide]
< 10 | CCOc1ncccc1-c1ccc(N2CCN(C(=O)c3ccc(Cl)cc3C#N)C[C@H]2CC)c(C(=O)N[C@@H]2CCNC2)n1 [Compound 1-277, 5-[(2R)-4-(4-chloro-2-cyanobenzoyl)-2-ethylpiperazin-1-yl]-2′-ethoxy-N-[(3R)-pyrrolidin-3-yl]-[2,3′-bipyridine]-6-carboxamide]
< 10 | CCOc1ncccc1-c1ccc(N2CCN(C(=O)N3CCc4cc(F)cc(Cl)c43)C[C@H]2CC)c(C(=O)N[C@H]2CCN(C)C2)n1 [Compound 1-419, 5-[(2R)-4-(7-chloro-5-fluoro-2,3-dihydro-1H-indole-1-carbonyl)-2-ethylpiperazin-1-yl]-2′-ethoxy-N-[(3S)-1-methylpyrrolidin-3-yl]-[2,3′-bipyridine]-6-carboxamide]
< 10 | CCOc1ccccc1-c1ccc(N2CCN(C(=O)C34CCC(C(F)(F)F)(CC3)C4)C[C@H]2CC)c(C(=O)N[C@@H]2CCN(C)C2)n1 [Compound 1-388, 6-(2-ethoxyphenyl)-3-[(2R)-2-ethyl-4-[4-(trifluoromethyl)bicyclo[2.2.1]heptane-1-carbonyl]piperazin-1-yl]-N-[(3R)-1-methylpyrrolidin-3-yl]pyridine-2-carboxamide]

Continued, molecule first:

Structure (SMILES) | Ki [nM]
CCOc1ncccc1-c1ccc(N2CCN(C(=O)c3ccc(Cl)cc3C(F)(F)F)C[C@H]2CC)c(C(=O)NCC2=NCCN2)n1 [Compound 1-226, 5-[(2R)-4-[4-chloro-2-(trifluoromethyl)benzoyl]-2-ethylpiperazin-1-yl]-N-[(4,5-dihydro-1H-imidazol-2-yl)methyl]-2′-ethoxy-[2,3′-bipyridine]-6-carboxamide] | < 10
CCOc1ncccc1-c1ccc(N2CCN(C(=O)c3ccc(Cl)cc3N3CCNCC3)C[C@H]2CC)c(C(=O)N[C@@H]2CCNC2)c1 [Compound 1-90, 2-[(2R)-4-[4-chloro-2-(piperazin-1-yl)benzoyl]-2-ethylpiperazin-1-yl]-5-(2-ethoxypyridin-3-yl)-N-[(3R)-pyrrolidin-3-yl]benzamide] | < 10
CCOc1ncccc1-c1ccc(N2CCN(C(=O)c3ccc(OC)cc3C(F)(F)F)C[C@H]2CC)c(C(=O)NCCN(C)C)n1 [Compound 1-169, N-[2-(dimethylamino)ethyl]-2′-ethoxy-5-[(2R)-2-ethyl-4-[4-methoxy-2-(trifluoromethyl)benzoyl]piperazin-1-yl]-[2,3′-bipyridine]-6-carboxamide] | < 10
CCOc1ncccc1-c1ccc(N2CCN(C(=O)c3ccc(Cl)cc3C(F)(F)F)C[C@H]2CC)c(C(=O)NC2CN(C)C2)c1 [Compound 1-216, 2-[(2R)-4-[4-chloro-2-(trifluoromethyl)benzoyl]-2-ethylpiperazin-1-yl]-5-(2-ethoxypyridin-3-yl)-N-(1-methylazetidin-3-yl)benzamide] | < 10
CCOc1ncccc1-c1ccc(N2CCN(C(=O)c3ccc(F)cc3N3CC(N)C3)C[C@H]2CC)c(C(=O)NCCN(C)C)c1 [Compound 1-148, 2-[(2R)-4-[2-(3-aminoazetidin-1-yl)-4-fluorobenzoyl]-2-ethylpiperazin-1-yl]-N-[2-(dimethylamino)ethyl]-5-(2-ethoxypyridin-3-yl)benzamide] | < 10
CCOc1ncccc1-c1ccc(N2CCN(C(=O)c3ccc(Cl)cc3Cl)C[C@H]2CC)c(C(=O)NCCNC)c1F [Compound 1-156, 6-[(2R)-4-(2,4-dichlorobenzoyl)-2-ethylpiperazin-1-yl]-3-(2-ethoxypyridin-3-yl)-2-fluoro-N-[2-(methylamino)ethyl]benzamide] | < 10
CCOc1ncccc1-c1ccc(N2CCN(C(=O)c3ccc(Cl)cc3C(F)(F)F)C[C@H]2CC)c(C(=O)NC[C@@H]2CCN2)c1 [Compound 1-97, N-{[(2S)-azetidin-2-yl]methyl}-2-[(2R)-4-[4-chloro-2-(trifluoromethyl)benzoyl]-2-ethylpiperazin-1-yl]-5-(2-ethoxypyridin-3-yl)benzamide] | < 10
CCOc1ncccc1-c1ccc(N2CCN(C(=O)c3ccc(Cl)cc3C(F)(F)F)C[C@H]2CC)c(C(=O)NCCN(C)C)c1 [Compound 1-47, 2-[(2R)-4-[4-chloro-2-(trifluoromethyl)benzoyl]-2-ethylpiperazin-1-yl]-N-[2-(dimethylamino)ethyl]-5-(2-ethoxypyridin-3-yl)benzamide] | < 10
CCOc1ncccc1-c1ccc(N2CCN(C(=O)c3ccc(OC)cc3C(F)(F)F)C[C@H]2CC)c(C(=O)NCC2=NCCN2)c1F [Compound 1-170, N-[(4,5-dihydro-1H-imidazol-2-yl)methyl]-3-(2-ethoxypyridin-3-yl)-6-[(2R)-2-ethyl-4-[4-methoxy-2-(trifluoromethyl)benzoyl]piperazin-1-yl]-2-fluorobenzamide] | < 10
CCOc1ccccc1-c1ccc(N2CCN(C(=O)c3ccccc3-c3ccc(CN)c(F)c3)C[C@H]2CC)c(C(=O)NCCN)c1 [Compound 1-26, N-(2-aminoethyl)-4-[(2R)-4-[4′-(aminomethyl)-3′-fluoro-[1,1′-biphenyl]-2-carbonyl]-2-ethylpiperazin-1-yl]-2′-ethoxy-[1,1′-biphenyl]-3-carboxamide] | < 10
